From patent EP4342885A1, “N-(3-(AMINOMETHYL)-PHENYL)-5-(4-PHENYL)-5-(TRIFLUOROMETHYL)-4,5-DIHYDROISOXAZOL-3-AMINE DERIVATIVES AND SIMILAR COMPOUNDS AS PESTICIDES” (priority 2022, dated 2024)

What was measured:
Format in all cases: in vivo
[1] = tested on: Anthonomus grandis; assay: Boll weevil (Anthonomus grandis) control, 96-well microtiter plate insect diet with eggs; settings: 120 h, read-out: mortality in comparison with untreated controls
Method: For evaluating control of boll weevil, the test unit consisted of 96-well-microtiter plates containing an insect diet and 5-10 A. grandis eggs.
The compounds were formulated using a solution containing 75% v/v water and 25% v/v DMSO. Different concentrations of formulated compounds were sprayed onto the insect diet at 5µl, using a custom-built micro atomizer, at two replications.
After application, microtiter plates were incubated at about 25 ± 1°C and about 75 ± 5 % relative humidity for 5 days. Egg and larval mortality were then visually assessed.

[2] = tested on: Myzus persicae; assay: Green peach aphid (Myzus persicae), mixed life stages, systemic test via artificial diet under membrane; settings: 72 h, read-out: mortality in comparison with untreated controls
Text: For evaluating control of Green Peach Aphid through systemic means the test unit consisted of 96-well-microtiter plates containing liquid artificial diet under an artificial membrane. The compounds were formulated using a solution containing 75% v/v water and 25% v/v DMSO. Different concentrations of formulated compounds were pipetted into the aphid diet, using a custom-built pipette, at two replications. After application, 5 - 8 adult aphids were placed on the artificial membrane inside the microtiter plate wells. The aphids were then allowed to suck on the treated aphid diet and incubated at about 23 ± 1°C and about 50 ± 5 % relative humidity for 3 days. Aphid mortality and fecundity was then visually assessed.

[3] = tested on: Heliothis virescens; assay: Tobacco budworm (Heliothis virescens) control, 96-well microtiter plate insect diet with eggs; settings: 120 h, read-out: mortality in comparison with untreated controls
Method: For evaluating control of Tobacco Budworm, the test unit consisted of 96-well-microtiter plates containing an insect diet and 15-25 H. virescens eggs. The compounds were formulated using a solution containing 75% v/v water and 25% v/v DMSO. Different concentrations of formulated compounds were sprayed onto the insect diet at 10µl, using a custom-built micro atomizer, at two replications. After application, microtiter plates were incubated at about 28 ± 1°C and about 80 ± 5 % relative humidity for 5 days. Egg and larval mortality was then visually assessed.

[4] = tested on: Aedes aegypti; assay: whole plant or invertebrate; settings: 48 h, larval mortality, 2 days, read-out: mortality in comparison with untreated controls
Method: For evaluating control of Yellow Fever Mosquito, the test unit consisted of 96-well-microtiter plates containing 200µl of tap water per well and 5-15 freshly hatched A. aegypti larvae. The active compounds were formulated using a solution containing 75% (v/v) water and 25% (v/v) DMSO. Different concentrations of formulated compounds or mixtures were sprayed onto the insect diet at 2.5µl, using a custom-built micro atomizer, at two replications.
After application, microtiter plates were incubated at 28 ± 1°C, 80 ± 5 % RH for 2 days. Larval mortality was then visually assessed.

[5] = tested on: Plutella xylostella; assay: Diamond back moth (Plutella xylostella) control, 96-well microtiter plate insect diet with eggs; settings: 120 h, read-out: mortality in comparison with untreated controls
Method: For evaluating control of […] (Plutella xylostella) the test unit consisted of 96-well-microtiter plates containing an insect diet and 15-25 P. xylostella eggs.
The compounds or mixtures were formulated using a solution containing 75% water and 25% DMSO. Different concentrations of formulated compounds or mixtures were sprayed onto the insect diet at 5µl, using a custom-built micro atomizer, at two replications.
After application, microtiter plates were incubated at 28 ± 1°C, 80 ± 5 % RH for 5 days. Egg and larval mortality was then visually assessed.

Measured: mortality at 800 ppm

O=C(NCc1cc(NC2=NOC(c3ccc(F)c(Cl)c3)(C(F)(F)F)C2)ccc1Cl)C1CCC1 (stereo not shown) [I-23]
≥ 75%: all assays above

CC(C)C(=O)NCc1cc(NC2=NOC(c3ccc(F)c(Cl)c3)(C(F)(F)F)C2)ccc1Cl (stereo not shown) [I-25]
≥ 75%: all assays above

O=C(NCc1cc(NC2=NOC(c3cc(Cl)c(F)c(Cl)c3)(C(F)(F)F)C2)ccc1OC(F)(F)F)C1CC1 (stereo not shown) [I-18]
≥ 75%: all assays above

CCN(C1=NOC(c2cc(Cl)c(F)c(Cl)c2)(C(F)(F)F)C1)c1ccc(F)c(CNC(=O)C2CC2)c1 (stereo not shown) [I-15]
≥ 75%: all assays above

CCS(=O)(=O)NCc1cc(NC2=NOC(c3cc(Cl)cc(Cl)c3)(C(F)(F)F)C2)ccc1F (stereo not shown) [I-13]
≥ 75%: all assays above

CCC(=O)NCc1cc(NC2=NOC(c3ccc(F)c(Cl)c3)(C(F)(F)F)C2)ccc1Cl (stereo not shown) [I-50]
≥ 75%: all assays above

O=C(NCc1cc(NC2=NOC(c3ccc(F)c(Cl)c3)(C(F)(F)F)C2)ccc1Cl)C1CC1 (stereo not shown) [I-21]
≥ 75%: all assays above

O=C(NCc1cc(NC2=NOC(c3cc(Cl)c(F)c(Cl)c3)(C(F)(F)F)C2)ccc1F)C1CC1 (stereo not shown) [I-16]
≥ 75%: all assays above

N#CC1(C(=O)NCc2cc(NC3=NOC(c4ccc(F)c(Cl)c4)(C(F)(F)F)C3)ccc2Cl)CC1 (stereo not shown) [I-32]
≥ 75%: all assays above

O=C(NCc1cc(NC2=NOC(c3cc(Cl)c(F)c(Cl)c3)(C(F)(F)F)C2)ccc1Cl)C1CC1 (stereo not shown) [I-14]
≥ 75%: all assays above

O=C(NCc1cc(NC2=NOC(c3ccc(F)c(Cl)c3)(C(F)(F)F)C2)ccc1Cl)C1CC1(F)F (stereo not shown) [I-48]
≥ 75%: all assays above
